Measurements as given in patent publication US10786481B2, “Hydroquinone compounds, preparation methods therefor, and use in anti-tumor or immunomodulation therapy” (Biomedical Analysis Center, Academy of Military Medical …, priority 2016, dated 2020).
Like-named read-outs stand apart in the source and are kept apart here.

How the values were obtained:
[1] = tested on: monocytes; conditions: via inhibition of ROS generation; Cell Research 2013, 23:898-914; cited from earlier work
[2] = Drug metabolism tests of BHA in vivo; design: species or system mice; conditions: for half-life: mouse, plasma
[3] = tested on: lung cancer in K-rasLA2 model mice; conditions: fodder of 0.75% BHA; Cell Research 2013, 23:898-914; cited from earlier work
[4] = tested on: humanized embryonic nephrocyte (HEK293 cell); assay: Cytotoxicity, MTS method, HEK293 cell; type: cell-based; conditions: Homo sapiens
Text: (§1) The toxicity of compounds is detected with MTS method in the immortalized mice bone marrowmacrophages (IBMM), mice embryonic fibroblast (NIH3t3) and humanized embryonic nephrocyte.

[5] = tested on: immortalized mice bone marrowmacrophages (IBMM); assay: Cytotoxicity, MTS method, IBMM cell; type: cell-based; conditions: Mus musculus, Bone marrow macrophage, read-out: IC50(mM) IBMM cell
Text: as §1

[6] = tested on: mice embryonic fibroblast (NIH3t3); assay: Cytotoxicity, MTS method, NIH3T3 cell; type: cell-based; conditions: Mus musculus
Text: as §1

[7] = Acute toxicity in mice, up-down method; type: in vivo; conditions: mouse, in vivo
Procedure: (§2) Detecting the acute toxicity of some of the compounds by using up-down method. Intragastric administrating a drug to the mice of 20˜22 g; lyase is corn oil, fasting for 12 h before administration, with free drinking.

[8] = tested on: mice; assay: Toxicology experiment of BHA in mice; type: in vivo
[9] = tested on: macrophages M2; assay: Polarization of macrophages M2; conditions: FIG. 1
[10] = tested on: Her2 breast cancer; assay: Mice model with Her2 breast cancer; type: in vivo
[11] = tested on: mice; assay: Acute toxicity in mice, up-down method; type: in vivo; conditions: mice, intragastric
Procedure: as §2

[12] = Release experiment of target compound in human plasma; conditions: 37° C., 5 min to 9 h
Procedure: Mobile phase: gradient elution; A: water; B: methanol;
Chromatographic column: CAPCEL PAK MF PH-1;
Detecting instrument: TQ-S; ion source: APCI; ion detection mode: MRM;
Dissolving the target compound with DMSO, then diluting to 5 μg/mL with the normal saline of 0.9%. The human blank plasma after subpackage is preserved at −70° C., unfreezing in a refrigerator at 4° C. when used. Take 20 μL of the blank plasma, adding 20 μL of the target compound solution as above formulated, vortexing for 15 s, and left it in the water bath at 37° C. […] Take the supernatant and inject 10 μL for detection.

[13] = po, mice, intragastric, corn oil, up-down method, unit inferred
[14] = HEK293, MTS method, read-out: IC50(mM) HEK293 cell
[15] = NIH3T3, MTS method, read-out: IC50(mM) NIH3T3 cell

Compound | differentiation of monocytes toward M2 macrophages [1] | LD50 [7, 13] [mg/kg] | IC50 [4, 14] [mM] | IC50 ([5]; MTS method) [mM] | IC50 [6, 15] [mM] | acute toxicity compared with BHA [11] | release of BHA in human plasma [12] | further results
COc1cc(C(C)=O)ccc1O [Apocynin] | inhibit differentiation of monocytes toward M2 macrophages | – | – | – | – | – | – | –
COc1ccc(O)c(C(C)(C)C)c1 [BHA, 2-tert-butyl-4-methoxyphenol] | inhibit differentiation of monocytes toward M2 macrophages | 1100 | – | – | – | – | – | half-life ([2]; FIG. 2A and B, read-out: half-life of BHA in vivo): 30 to 60 min; half-life ([2]; mice, oral, read-out: T112 (half-life)): 20 min; time to peak ([2]; oral): 5 min; generation of lung cancer [3]: completely inhibited; IC50 ([4]; HEK293, read-out: IC50(mM) HEK293 cell): 0.325 mM; IC50 [5]: 0.218 mM; IC50 ([6]; NIH3T3, read-out: IC50(mM) NIH3T3 cell): 0.267 mM; LD50 ([7]; oral, acute toxicity in mice, as restated): 1100 mg/kg; toxic signs ([8]; 600 mg/kg, recover after half an hour): central effect of partially “hangover” state; mortality ([8]; 1100 mg/kg): Half of the mice with 1100 mg/kg are caused to die; time until symptoms of the toxic reaction disappear in survival mice ([8]; 1100 mg/kg): 30 to 60 min; toxic effect, long term dosing ([8]; low dose, long term dosed for two years): toxic effect is not seen; polarization effect of macrophages M2 [9]: inhibits the polarization effect of macrophages M2; anti-tumor effects ([10]; HER2 mice model, 50-1000 mg/kg BW dosed in portions): obvious anti-tumor effects; metastasis in head ([10]; Her2 tumor model with the breast cancer, FIG. 1A): not observed
CC(=O)N[C@@H](CS)C(=O)O [NAC] | inhibit differentiation of monocytes toward M2 macrophages | – | – | – | – | – | – | –
CC1(C)CCCC(C)(C)N1[O] [TEMPO] | inhibit differentiation of monocytes toward M2 macrophages | – | – | – | – | – | – | –
COc1ccc(OC(C)=O)c(C(C)(C)C)c1 [XH2006, 2-tert-butyl-4-methoxyphenol acetate] | – | > 1200 | 0.118 | 0.443 | 0.021 | lower than that of 2-tert-butyl-4-methoxyphenol-oxyl (BHA) | releases BHA | –
COc1ccc(OC(=O)c2cccnc2)c(C(C)(C)C)c1 [XH2010, 2-tert-butyl-4-methoxyphenol nicotinate] | – | > 1200 | 0.207 | 0.175 | 0.186 | lower than that of 2-tert-butyl-4-methoxyphenol-oxyl (BHA) | releases BHA | –
COc1ccc(OC(=O)c2ccncc2)c(C(C)(C)C)c1 [XH2011, 2-tert-butyl-4-methoxyphenol isonicotinate] | – | > 1300 | 0.311 | 0.119 | 0.0326 | lower than that of 2-tert-butyl-4-methoxyphenol-oxyl (BHA) | releases BHA | –
COc1ccc(OC(=O)C2CCCC2)c(C(C)(C)C)c1 [XH2039-6, (2-tert-butyl-4-methoxyphenol) cyclopentanecarboxylate] | – | – | 0.136 | 0.171 | 0.229 | – | releases BHA | –
COc1ccc(OC(=O)CC2CC2)c(C(C)(C)C)c1 [XH2040-2, (2-tert-butyl-4-methoxyphenol) cyclopropylacetate] | – | – | 0.237 | 0.202 | 0.232 | – | releases BHA | –
CCCCCCCC(=O)Oc1ccc(OC)cc1C(C)(C)C [XH2040-4, (2-tert-butyl-4-methoxyphenol) octanoate] | – | – | 0.283 | 0.198 | 0.366 | – | releases BHA | –
COc1ccc(OC(=O)Cc2cc(F)c(F)cc2F)c(C(C)(C)C)c1 [XH2041-2, (2-tert-butyl-4-methoxyphenol) 2,4,5-trifluorophenylacetate] | – | – | 0.349 | 0.156 | 0.26 | – | releases BHA | –
COc1ccc(OC(=O)CC(F)(F)F)c(C(C)(C)C)c1 [XH2044-1, (2-tert-butyl-4-methoxyphenol) 3,3,3-trifluoropropionate] | – | – | 0.206 | > 0.7 | 0.353 | – | releases BHA | –
(2-tert-butyl-4-methoxyphenol) morpholin-4-yl acetate [XH2044-2] | – | – | – | – | – | lower than that of 2-tert-butyl-4-methoxyphenol-oxyl (BHA) | releases BHA | LD50 ([11]; corn oil, up-down method, unit inferred): > 1300 mg/kg
